Target: T1, human mGluR2 receptor (Homo sapiens, UniProt Q14416)
T1 construct: expressed in transfected cells; host or cells: CHO cells (membranes)
Assay: [35S]GTPγS binding assay (PAM)
Assay type: biochemical
Conditions: in presence of glutamate at predetermined EC20; membranes from CHO cells transfected with human mGluR2
Description: [^35S]GTPγS binding assay
The [^35S]GTPγS binding assay is a functional membrane-based assay used to study G-protein coupled receptor (GPCR) function whereby incorporation of a non-hydrolysable form of GTP, [^35S]GTPγS (guanosine 5′-triphosphate, labelled with […] ^35S), is measured.
CHO-cells were cultured to pre-confluence and stimulated with 5 mM butyrate for 24 h, prior to washing in PBS, and then collected by scraping in homogenisation buffer (50 mM Tris-HCl buffer, pH 7.4, 4° C.). Cell lysates were homogenized briefly using an ultra-turrax homogenizer. The homogenate was centrifuged at 16,000 RPM (Sorvall RC-5C plus rotor SS-34) for 10 minutes and the supernatant discarded. The pellet was resuspended in 5 mM Tris-HCl, pH 7.4 and centrifuged again (18,000 RPM, 20 min, 4° C.). The final pellet was resuspended in 50 mM Tris-HCl, pH 7.4 and stored at −80° C. in appropriate aliquots before use. Protein concentration was determined by the Bradford method (Bio-Rad, USA) with bovine serum albumin as standard.
Measurement of mGluR2 positive allosteric modulatory activity of test compounds was performed as follows. Test compounds and glutamate were diluted in assay buffer containing 10 mM HEPES acid, 10 mM HEPES salt, pH 7.4, 100 mM NaCl, 3 mM MgCl2 and 10 μM GDP. Human mGlu2 receptor-containing membranes were thawed on ice and diluted in assay buffer supplemented with 14 μg/ml saponin. Membranes were pre-incubated with compound alone or together with a predefined (˜EC20) concentration of glutamate (PAM assay) for 30 min at 30° C. After addition of [^35S]GTPγS (f.c. 0.1 nM) microplates were shaken briefly and further incubated to allow [^35S]GTPγS incorporation on activation (30 minutes, 30° C.). Final assay mixtures contained 7 μg of membrane protein in 10 mM HEPES acid, 10 mM HEPES salt, pH 7.4, 100 mM NaCl, 3 mM MgCl2, 10 μM GDP and 10 μg/ml saponin. Total reaction volume was […] Reactions were terminated by rapid filtration through Unifilter-96 GF/B filter plates (Packard, Meriden, Conn.) using a 96-well Packard filtermate harvester. Filters were washed 6 times with ice-cold 10 mM NaH2PO4/10 mM Na2HPO4, pH 7.4. Filters were then air-dried, and 40 μl of liquid scintillation cocktail (Microscint-O) was added to each well. Membrane-bound radioactivity was counted in a Microplate Scintillation and Luminescence Counter from Packard.
obtained in the presence of EC20 of mGluR2 agonist glutamate to determine positive allosteric modulation (PAM)—were generated using the Lexis software interface (developed at J&J). Data were calculated as % of the control glutamate response, defined as the maximal response that is generated upon addition of glutamate alone. Sigmoid concentration-response curves plotting these percentages versus the log concentration of the test compound were analyzed using non-linear regression analysis. The concentration producing half-maximal effect is then calculated as EC50.
All compounds were tested in presence of mGluR2 agonist, glutamate at a predetermined EC20 concentration, to determine positive allosteric modulation (GTPγS-PAM). pEC50 values were calculated from a concentration-response experiment of at least 10 concentrations.

T1 sequence (Q14416 19-872): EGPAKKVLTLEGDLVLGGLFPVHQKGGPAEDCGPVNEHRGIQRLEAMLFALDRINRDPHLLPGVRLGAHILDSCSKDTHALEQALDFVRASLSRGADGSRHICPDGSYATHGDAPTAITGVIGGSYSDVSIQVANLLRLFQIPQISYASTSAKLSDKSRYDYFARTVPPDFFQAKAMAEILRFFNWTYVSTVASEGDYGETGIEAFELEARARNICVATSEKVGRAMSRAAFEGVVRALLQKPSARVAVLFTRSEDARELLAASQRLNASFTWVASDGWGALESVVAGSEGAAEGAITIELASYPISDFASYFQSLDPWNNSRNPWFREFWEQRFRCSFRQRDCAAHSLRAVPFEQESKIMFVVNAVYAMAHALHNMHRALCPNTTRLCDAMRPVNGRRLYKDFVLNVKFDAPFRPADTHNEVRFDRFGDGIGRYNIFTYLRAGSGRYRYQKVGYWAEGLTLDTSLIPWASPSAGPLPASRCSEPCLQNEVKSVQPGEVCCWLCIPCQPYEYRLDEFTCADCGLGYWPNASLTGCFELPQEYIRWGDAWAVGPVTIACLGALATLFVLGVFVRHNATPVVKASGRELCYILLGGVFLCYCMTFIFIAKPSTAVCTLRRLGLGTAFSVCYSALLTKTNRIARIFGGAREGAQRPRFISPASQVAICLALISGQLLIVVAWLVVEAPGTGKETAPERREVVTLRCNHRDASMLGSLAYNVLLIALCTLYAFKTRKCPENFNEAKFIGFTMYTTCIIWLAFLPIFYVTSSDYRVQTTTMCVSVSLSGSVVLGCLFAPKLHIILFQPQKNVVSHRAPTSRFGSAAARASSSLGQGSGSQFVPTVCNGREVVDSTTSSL

GTPγS -hR2 PAM pEC50 | SMILES
6.13 | FC(F)(F)C1CCN(Cc2ccc(-c3ccn4c(CC5CC5)nnc4c3Cl)cc2)CC1 [Co. No. 19]
8.15 | FC(F)(F)c1c(-c2ccc(NC3CC3)c(Cl)c2)ccn2c(CC3CC3)nnc12 [Co. No. 31]
6.63 | CCOCc1nnc2c(C(F)(F)F)c(-c3ccc(Oc4cc(C)nc(C)c4)c(F)c3)ccn12 [Co. No. 37]
6.78 | Cc1cc(Oc2ccc(-c3ccn4c(CC(F)(F)F)nnc4c3Cl)cc2Cl)ccn1 [Co. No. 40]
6.66 | FC(F)(F)Cc1nnc2c(Cl)c(-c3ccc(NC4CCOCC4)c(Cl)c3)ccn12 [Co. No. 30]
7.77 | CC(C)Nc1ccc(-c2ccn3c(CC4CC4)nnc3c2C(F)(F)F)cc1Cl [Co. No. 52]
7.40 | O[C@H]1CC[C@H](Nc2ccc(-c3ccn4c(CC(F)(F)F)nnc4c3Cl)cc2Cl)CC1 [Co. No. 29]
6.67 | FC(F)(F)c1c(-c2ccc(N3CCCCC3)nc2)ccn2c(CC3CC3)nnc12 [Co. No. 70]
6.05 | Clc1c(-c2ccccc2)ccn2c(CN3CCOc4ccccc4C3)nnc12 [Co. No. 28]
7.02 | FC(F)(F)c1c(-c2ccc(CN3CCOCC3)c(Cl)c2)ccn2c(CC3CC3)nnc12 [Co. No. 71]
7.98 | Cc1ccc(CNc2ccc(-c3ccn4c(CC5CC5)nnc4c3C(F)(F)F)cc2F)cn1 [Co. No. 78]
5.61 | Clc1c(-c2ccc(N3CCOCC3)nc2)ccn2c(CC3CC3)nnc12 [Co. No. 67]
8.79 | Cc1ccc(Oc2ccc(-c3ccn4c(CC5CC5)nnc4c3C(F)(F)F)cc2Cl)c(C)n1 [Co. No. 53]
6.65 | CC(C)Nc1ccc(-c2ccn3c(CC4CC4)nnc3c2Cl)cc1F [Co. No. 50]
5.90 | FC(F)(F)c1c(-c2ccc(N3CCOCC3)nc2)ccn2c(CC3CC3)nnc12 [Co. No. 68]
7.16 | Cc1cc(Oc2ccc(-c3ccn4c(CC5CC5)nnc4c3C(F)(F)F)cc2F)cc(C)n1 [Co. No. 38]
7.13 | CCOCc1nnc2c(Cl)c(-c3ccc(Oc4ccc(C)nc4C)c(F)c3)ccn12 [Co. No. 33]
8.00 | Cc1ccc(Oc2ccc(-c3ccn4c(CC(F)(F)F)nnc4c3Cl)cc2Cl)c(C)n1 [Co. No. 55]

GTPγS -hR2 PAM pEC50 | SMILES
8.79 | O[C@]1(C2CC2)CC[C@H](Nc2ccc(-c3ccn4c(CC5CC5)nnc4c3C(F)(F)F)cc2Cl)CC1 [Co. No. 47]
6.51 | CC(C)Nc1ccc(-c2ccn3c(CC4CC4)nnc3c2Cl)cn1 [Co. No. 66]
6.53 | Clc1cc(-c2ccn3c(CC4CC4)nnc3c2Cl)ccc1OC1CCOCC1 [Co. No. 23]
7.11 | O[C@H]1CC[C@H](Nc2ccc(-c3ccn4c(CC5CC5)nnc4c3Cl)cc2Cl)CC1 [Co. No. 21]
7.01 | O[C@H]1CC[C@@H](Oc2ccc(-c3ccn4c(CC(F)(F)F)nnc4c3Cl)cc2Cl)CC1 [Co. No. 26]
7.51 | CCOCc1nnc2c(C(F)(F)F)c(-c3ccc(Oc4ccc(C)nc4C)c(F)c3)ccn12 [Co. No. 44]
7.20 | Fc1cc(-c2ccn3c(CC4CC4)nnc3c2Cl)ccc1NC1CC1 [Co. No. 25]
7.70 | Cc1ccc(Oc2ccc(-c3ccn4c(CC5CC5)nnc4c3C)cc2Cl)c(C)n1 [Co. No. 61]
6.80 | O[C@H]1CC[C@H](Oc2ccc(-c3ccn4c(CC(F)(F)F)nnc4c3Cl)cc2Cl)CC1 [Co. No. 27]
6.88 | Clc1c(-c2ccc(Oc3ccccc3)cc2)ccn2c(C3CCC3)nnc12 [Co. No. 17]
7.15 | COc1ccc(CNc2ccc(-c3ccn4c(CC5CC5)nnc4c3Cl)cc2)cn1 [Co. No. 59]
6.21 | FC(F)(F)c1c(-c2ccc(CNC3CCOCC3)c(Cl)c2)ccn2c(CC3CC3)nnc12 [Co. No. 74]
7.13 | CC(C)Nc1ccc(-c2ccn3c(CC4CC4)nnc3c2Cl)cc1Cl [Co. No. 51]
6.54 | Cc1cc(Oc2ccc(-c3ccn4c(CCC5CC5)nnc4c3Cl)cc2F)ccn1 [Co. No. 41]
6.53 | Clc1c(-c2ccc(N3CCCCC3)nc2)ccn2c(CC3CC3)nnc12 [Co. No. 69]
6.49 | CC1(O)CCN(Cc2ccc(-c3ccn4c(CC5CC5)nnc4c3C(F)(F)F)cc2Cl)CC1 [Co. No. 72]
7.26 | CCOCc1nnc2c(C)c(-c3ccc(Oc4ccc(C)nc4C)c(Cl)c3)ccn12 [Co. No. 65]

Same assay, conditions: in presence of glutamate at predetermined EC20; membranes from CHO cells transfected with human mGluR2; read-out: GTPγS -hR2 PAM pEC50 (converted)

EC50 | SMILES
219 nM | CCOCc1nnc2c(C(F)(F)F)c(-c3ccc(Oc4ccnc(C)c4)c(F)c3)ccn12 [Co. No. 36, 3-Ethoxymethyl-7-[3-fluoro-4-(2-methyl-pyridin-4-yloxy)-phenyl]-8-trifluoromethyl-[1,2,4]triazolo[4,3-a]pyridine]
36.3 nM | Clc1cc(-c2ccn3c(CC4CC4)nnc3c2Cl)ccc1NC1CC1 [Co. No. 6]
60.3 nM | CC(C)Nc1ccc(-c2ccn3c(CC4CC4)nnc3c2C(F)(F)F)cc1F [Co. No. 49, 3-Cyclopropylmethyl-7-[3-fluoro-4-(isopropylamino)-phenyl]-8-trifluoromethyl-[1,2,4]triazolo[4,3-a]pyridine]
22.9 nM | OC1CCC(Nc2ccc(-c3ccn4c(CC5CC5)nnc4c3Cl)cc2Cl)CC1 (single isomer, unassigned) [Co. No. 13-a, 7-[3-Chloro-4-(4-hydroxy-cyclohexylamino)-phenyl]-8-chloro-3-cyclopropylmethyl-[1,2,4]triazolo[4,3-a]pyridine]
17 nM | FC(F)(F)c1c(-c2ccc(NC3CCOCC3)c(Cl)c2)ccn2c(CC3CC3)nnc12 [Co. No. 10, 8-Trifluoromethyl-7-[3-chloro-4-(tetrahydro-pyran-4-ylamino)-phenyl]-3-cyclopropylmethyl-[1,2,4]triazolo[4,3-a]pyridine]
41.7 nM | O[C@H]1CC[C@H](Nc2ccc(-c3ccn4c(CC5CC5)nnc4c3Cl)cc2Cl)CC1 [Co. No. 12, 8-Cloro-7-[3-chloro-4-(4-hydroxy-cyclohexylamino)-phenyl]-3-cyclopropylmethyl-[1,2,4]triazolo[4,3-a]pyridine]
191 nM | Clc1c(-c2ccccc2)ccn2c(CN3CCC(c4ccccc4)CC3)nnc12 [Co. No. 5]
40.7 nM | FC(F)(F)c1c(-c2ccc(OC3CCOCC3)c(Cl)c2)ccn2c(CC3CC3)nnc12 [Co. No. 9, 8-Trifluoromethyl-7-[3-chloro-4-(tetrahydro-pyran-4-yloxy)-phenyl]-3-cyclopropylmethyl-[1,2,4]triazolo[4,3-a]pyridine]

Test system: not given
Assay: not given
Conditions: not given

melting point | SMILES
171.2 °C | CCOCc1nnc2c(C(F)(F)F)c(-c3ccc(Oc4ccnc(C)c4)c(F)c3)ccn12 [Co. No. 36, 3-Ethoxymethyl-7-[3-fluoro-4-(2-methyl-pyridin-4-yloxy)-phenyl]-8-trifluoromethyl-[1,2,4]triazolo[4,3-a]pyridine]
> 300 °C | Clc1cc(-c2ccn3c(CC4CC4)nnc3c2Cl)ccc1NC1CC1 [Co. No. 6]
196.9 °C | CC(C)Nc1ccc(-c2ccn3c(CC4CC4)nnc3c2C(F)(F)F)cc1F [Co. No. 49, 3-Cyclopropylmethyl-7-[3-fluoro-4-(isopropylamino)-phenyl]-8-trifluoromethyl-[1,2,4]triazolo[4,3-a]pyridine]
198.4 °C | FC(F)(F)c1c(-c2ccc(NC3CCOCC3)c(Cl)c2)ccn2c(CC3CC3)nnc12 [Co. No. 10, 8-Trifluoromethyl-7-[3-chloro-4-(tetrahydro-pyran-4-ylamino)-phenyl]-3-cyclopropylmethyl-[1,2,4]triazolo[4,3-a]pyridine]
156.7 °C | Clc1c(-c2ccc(Oc3ccccc3)cc2)ccn2c(CC3CC3)nnc12 [Co. No. 8, 8-Chloro-3-cyclopropylmethyl-7-(4-phenoxy-phenyl)-1,2,4-triazolo[4,3-a]pyridine]
273.7 °C | O[C@H]1CC[C@H](Nc2ccc(-c3ccn4c(CC5CC5)nnc4c3Cl)cc2Cl)CC1 [Co. No. 12, 8-Cloro-7-[3-chloro-4-(4-hydroxy-cyclohexylamino)-phenyl]-3-cyclopropylmethyl-[1,2,4]triazolo[4,3-a]pyridine]
176.9 °C | FC(F)(F)c1c(-c2ccc(OC3CCOCC3)c(Cl)c2)ccn2c(CC3CC3)nnc12 [Co. No. 9, 8-Trifluoromethyl-7-[3-chloro-4-(tetrahydro-pyran-4-yloxy)-phenyl]-3-cyclopropylmethyl-[1,2,4]triazolo[4,3-a]pyridine]
